Data on seven molecules can be found in ChEMBL document CHEMBL3397010, “Design, synthesis, and biological evaluation of air-stable nafuredin-γ analogs as complex I inhibitors” (Bioorg Med Chem, 2015).

SMILES strings stand for the structures.

The nature of the test: Inhibition of electron transport protein complex 1 in Ascaris suum mitochondria assessed as reduction in rhodoquinol-fumarate reductase activity by measuring NADH oxidation using NADH, sodium fumarate and decyl-rhodoquinone.
With `CC(C)=CCC/C(C)=C/CC/C(C)=C/CC[C@@H](O)[C@]1(C)CCC(=O)O1`, the IC50 (commonly the point on the concentration scale where inhibition reaches its midpoint) came to 820 nM.
As for `C/C(=C\CCC(C)C)CCCC/C=C/[C@@H](O)[C@]1(C)CCC(=O)O1`, the figure is 340 nM; as for `C/C(=C\CCC(C)C)C[C@@H](C)CC/C=C/[C@@H](O)[C@]1(C)CCC(=O)O1`, 300 nM.
As for `CC[C@H](C)CC/C=C(\C)C[C@@H](C)CC/C=C/[C@@H](O)[C@]1(C)CCC(=O)O1`, the figure is 550 nM; as for `CCc1ccc2ccc(Cc3cccc(/C=C/[C@@H](O)[C@]4(C)CCC(=O)O4)c3)cc2c1`, 550 nM; as for `CC[C@H](C)/C=C/C=C(\C)C[C@@H](C)/C=C/C=C/[C@@H](O)[C@]1(C)C=C(O)C(=O)O1`, 6 nM.
In the case of `CC(C)=CCC/C(C)=C/CC/C(C)=C/CC[C@@H](O)[C@]1(C)CCCO1`, the IC50 was determined as 500 nM.
